Data as given in patent US11503826B2, “Low volatility auxin herbicide formulations” (priority 2009, dated 2022).
Structures can show the parent of a compound that is named as a salt.

Assays:
[1] = Distillation volatility: dicamba in distillate by HPLC/MS; type: physicochemical; settings: for ppm Dicamba in distillate: Table 4h summary, 5% a.e. salt solution
Experimental: The pH was measured on a standard Orion Model 320 pH meter of each neat solution.
Simple distillation using a short path still was used to collect the water distillate containing the dicamba in the vapor phase of the salt solutions. A 50 mL distillation flask was used. The distillation receiver was a “cow” type with four 2 mL graduated sections. The solutions were heated at the 30% setting of the GlassCol heating unit and the boiling point of each distillation was noted. The first 2 ml of distillate was collected, and the receiver rotated to avoid collection of any further distillate in that section as the distillation flask cooled. The 2 mL sample was quantitatively transferred by pipette to HPLC vials for later analysis. Between each distillation the distillation apparatus was washed with 10 volumes of tap water, 10 volumes of distilled water, rinsed with acetone, and dried in a 60° C. oven. Each distillation was run in triplicate.
The distillate was collected and analyzed for dicamba concentration using HPLC/Mass Spectroscopy (MS). The HPLC column was an Agilent Zorbax Eclipse XDB-C8, 4.6×150 mm, 5u, PN 993967-90. Mobile phase A was 0.1% formic acid in D.I. water. Mobile phase B was 0.1% formic acid in acetonitrile. A flow rate of 1.2 mL/min was used and an injection volume of 5, 10, 15 or 25 ul was used depending on the dicamba level in the sample. The following gradient was used: […]
The MS parameters were as follows: Type SIR; ES-ion mode; 0.05 second inter channel delay; 0.05 second interscan time; 0.5 span (Da); 10 minutes elapsed time; and 6-6000 ppb calibration range. […] Channel 2 mass was 177 (Da); Dwell was 0.25(s); Cone(V)=tune and; 0.05(s) delay.

[2] = Aqueous solubility of dicamba acid and dicamba salts; settings: for Comments (crystal formation) / solubility 0° C. a.e. / solubility 0° C. a.i. / solubility 20° C. a.e. / solubility 20° C. a.i.: Table 10a; for Comments (crystal formation): dicamba salt solutions; for solubility 0° C. a.e. / solubility 0° C. a.i. / solubility 20° C. a.e. / solubility 20° C. a.i.: dicamba salt; for solubility 0° C. a.e. / solubility 0° C. a.i.: equilibrated 5 to 7 days at 0° C.; for solubility 0° C. a.e. / solubility 20° C. a.e.: acid equivalent; for solubility 0° C. a.i. / solubility 20° C. a.i.: active ingredient; for solubility 20° C. a.e. / solubility 20° C. a.i.: equilibrated 5 to 7 days at 20° C.; for solubility 20° C. a.e.: 0.45 micron filter, HPLC; for aqueous solubility wt % a.i. @20° C.: dicamba salts
Text: The solution was then passed through a 0.45 micron filter and assayed by HPLC for soluble dicamba.

[3] = type: physicochemical; settings: 5 mL sample, air pulled through tube over PUF approximately 1 day; wt % a.e.: salts 35.8, BANVEL 40, acid 99
Experimental: In a further set of experiments, measurements of dicamba concentration in the gas phase (air) above 38.5 wt % a.e. solutions of various dicamba salts was measured. 5 mL of each sample of dicamba was placed into a 50 mL plastic centrifuge tube with four holes approximately ⅛ in diameter drilled into the tube at the 10 mL line. A 22 mm×30 mm PUF (SKC ct. #226-124) was placed into a glass tube of app. 20 mm diameter with parafilm wrapped around the outside to obtain a snug fit into the top of the centrifuge tube. A hose was connected to the other end of the glass tube leading to a vacuum line. The air flow was regulated to app. 2 L/min using a flow controller (about 0.4 L air/min-mL sample). Air was pulled through the tube at […] for approximately 1 day. Note that the air conditions of flow rate, temperature, pressure and composition (e.g., relative humidity) are not narrowly critical as long as the various samples are analyzed under similar conditions. For instance, air at from about 5° C. to about 40° C., from about 0.5 to about 1.5 bar pressure, from about 0% to about 95% relative humidity, and at a flow rate of from about 0.1 to 10 L/min-mL sample could be suitably used for volatility analysis. The PUF was removed from the glass tube, extracted with 20 mL methanol and the resulting solution analyzed for dicamba concentration by LC-MS. The results are shown in Table 4i below where “wt % a.e.” refers to the dicamba concentration, “μg/mL” refers to the dicamba concentration in the distillate, “μg dicamba” refers to the total dicamba extracted from the PUF by 20 mL methanol, and “ng/L air” and “moles/L air” refer to the dicamba concentration in the gas phase above the solution.

[4] = Tank mix compatibility of dicamba salts with potassium glyphosate; type: physicochemical
Text: The weight of the dicamba solution that caused precipitation was noted. The results are reported in Table 12a below where “salt” refers to the dicamba salt and “g to crystals” refers to the total amount of grams of dicamba a.e. that were required to induce crystallization or precipitation of crystals.

With `CC(C)N` [IPA] the “Mean Dicamba in Distillate” value ([1]; 1% a.e. dicamba, solution pH 3.41) was 1.42 ppm, the “Mean Dicamba in Distillate” value ([1]; 1% a.e. dicamba, solution pH 4.40) was 0.42 ppm and the “Mean Dicamba in Distillate” value ([1]; 1% a.e. dicamba, solution pH 5.13) was 0.37 ppm. For the same compound, the “Mean Dicamba in Distillate” value ([1]; 1% a.e. dicamba, solution pH 8.10) was 0.72 ppm, the “Mean Dicamba in Distillate” value ([1]; 1% a.e. dicamba, solution pH 9.13) was 1.22 ppm and the “Mean Dicamba in Distillate” value ([1]; 2% a.e. dicamba, solution pH 3.37) was 3.65 ppm. The “Mean Dicamba in Distillate” value ([1]; 2% a.e. dicamba, solution pH 4.36) was 1.42 ppm, the “Mean Dicamba in Distillate” value ([1]; 2% a.e. dicamba, solution pH 5.10) was 0.94 ppm and the “Mean Dicamba in Distillate” value ([1]; 2% a.e. dicamba, solution pH 8.13) was 0.75 ppm. The “Mean Dicamba in Distillate” value ([1]; 2% a.e. dicamba, solution pH 9.20) was 3.43 ppm, the “Mean Dicamba in Distillate” value ([1]; 5% a.e. dicamba, solution pH 3.44) was 5.85 ppm and the “Mean Dicamba in Distillate” value ([1]; 5% a.e. dicamba, solution pH 4.33) was 3.14 ppm. For the same compound, the “Mean Dicamba in Distillate” value ([1]; 5% a.e. dicamba, solution pH 4.94) was 3.77 ppm, the “Mean Dicamba in Distillate” value ([1]; 5% a.e. dicamba, solution pH 8.24) was 2.47 ppm and the “Mean Dicamba in Distillate” value ([1]; 5% a.e. dicamba, solution pH 9.28) was 12.57 ppm. The “ppm Dicamba in distillate” value ([1]; pH 8.24) was 2.5 ppm.
With `CNC` [DMA] the “Mean Dicamba in Distillate” value ([1]; 1% a.e. dicamba, solution pH 3.25) was 4.50 ppm, the “Mean Dicamba in Distillate” value ([1]; 1% a.e. dicamba, solution pH 4.36) was 0.57 ppm and the “Mean Dicamba in Distillate” value ([1]; 1% a.e. dicamba, solution pH 6.11) was 0.30 ppm. The “Mean Dicamba in Distillate” value ([1]; 1% a.e. dicamba, solution pH 8.53) was 0.73 ppm, the “Mean Dicamba in Distillate” value ([1]; 1% a.e. dicamba, solution pH 10.12) was 1.32 ppm and the “Mean Dicamba in Distillate” value ([1]; 2% a.e. dicamba, solution pH 3.20) was 9.19 ppm. The “Mean Dicamba in Distillate” value ([1]; 2% a.e. dicamba, solution pH 4.25) was 1.08 ppm, the “Mean Dicamba in Distillate” value ([1]; 2% a.e. dicamba, solution pH 5.97) was 0.83 ppm and the “Mean Dicamba in Distillate” value ([1]; 2% a.e. dicamba, solution pH 8.66) was 1.98 ppm. For the same compound, the “Mean Dicamba in Distillate” value ([1]; 2% a.e. dicamba, solution pH 10.24) was 4.88 ppm, the “Mean Dicamba in Distillate” value ([1]; 5% a.e. dicamba, solution pH 3.18) was 20.10 ppm and the “Mean Dicamba in Distillate” value ([1]; 5% a.e. dicamba, solution pH 4.22) was 2.67 ppm. The “Mean Dicamba in Distillate” value ([1]; 5% a.e. dicamba, solution pH 5.58) was 2.06 ppm, the “Mean Dicamba in Distillate” value ([1]; 5% a.e. dicamba, solution pH 8.69) was 8.43 ppm and the “Mean Dicamba in Distillate” value ([1]; 5% a.e. dicamba, solution pH 10.17) was 12.34 ppm. For the same compound, the “ppm Dicamba in distillate” value ([1]; pH 5.58) was 2.1 ppm and the “ppm Dicamba in distillate” value ([1]; pH 8.69) was 8.4 ppm.
In the case of `COc1c(Cl)ccc(Cl)c1C(=O)O` [Dicamba acid, 3,6-dichloro-2-methoxybenzoic acid], the “aqueous solubility Approximate g a.e./L @20° C.” value ([2]; listed as acid) was 4.5 g a.e./L, the “aqueous solubility wt % a.e. @20° C.” value ([2]; listed as acid) was 0.4 wt % a.e and the “aqueous solubility wt % a.e. @20° C.” value ([2]; Table 10b, second experiment, dicamba acid and salts, listed as acid) was 0.4 wt % a.e. For the same compound, the “dicamba” value [3] was 15.3 µg/mL, the “dicamba concentration in gas phase, moles/L air” value [3] was 1.92 × 10^−10 moles/L air and the “dicamba concentration in gas phase, ng/L air” value [3] was 42.4 ng/L air. The μg dicamba [3] was 305.4 µg.
For `COc1c(Cl)ccc(Cl)c1C(=O)O` [Dicamba potassium salt], the “aqueous solubility Approximate g a.e./L @20° C.” value ([2]; listed as potassium dicamba) was 720 g a.e./L, the “aqueous solubility wt % a.e. @20° C.” value ([2]; listed as potassium dicamba) was 54.6 wt % a.e and the “Comments (crystal formation)” value ([2]; listed as K) was “Crystals form on”. The “solubility 0° C. a.e.” value ([2]; listed as K) was 52.7 wt %, the “solubility 0° C. a.i.” value ([2]; listed as K) was 61.8 wt % and the “solubility 20° C. a.e.” value ([2]; listed as K) was 54.6 wt %. The “solubility 20° C. a.i.” value ([2]; listed as K) was 64 wt %, the “aqueous solubility wt % a.e. @20° C.” value ([2]; Table 10b, second experiment, dicamba acid and salts, listed as potassium salt) was 54.6 wt % a.e and the “aqueous solubility wt % a.i. @20° C.” value ([2]; Table 10b, second experiment, listed as potassium salt) was 64 wt % a.i. The “ppm Dicamba in distillate” value ([1]; pH 7.06) was 0.6 ppm.
With `NCCOCCO` [DGA] the “Comments (crystal formation)” value [2] was “Crystals formed slowly”, the “solubility 20° C. a.e.” value [2] was <50 wt % and the “Mean Dicamba in Distillate” value ([1]; 1% a.e. dicamba, solution pH 4.23) was 0.46 ppm. The “Mean Dicamba in Distillate” value ([1]; 1% a.e. dicamba, solution pH 6.48) was 0.18 ppm, the “Mean Dicamba in Distillate” value ([1]; 1% a.e. dicamba, solution pH 8.24) was 0.13 ppm and the “Mean Dicamba in Distillate” value ([1]; 1% a.e. dicamba, solution pH 8.88) was 0.12 ppm. The “Mean Dicamba in Distillate” value ([1]; 2% a.e. dicamba, solution pH 4.17) was 1.10 ppm, the “Mean Dicamba in Distillate” value ([1]; 2% a.e. dicamba, solution pH 6.44) was 0.31 ppm and the “Mean Dicamba in Distillate” value ([1]; 2% a.e. dicamba, solution pH 8.22) was 0.28 ppm. The “Mean Dicamba in Distillate” value ([1]; 2% a.e. dicamba, solution pH 8.92) was 0.19 ppm, the “Mean Dicamba in Distillate” value ([1]; 5% a.e. dicamba, solution pH 4.57) was 2.11 ppm and the “Mean Dicamba in Distillate” value ([1]; 5% a.e. dicamba, solution pH 6.35) was 0.75 ppm. For the same compound, the “Mean Dicamba in Distillate” value ([1]; 5% a.e. dicamba, solution pH 8.26) was 0.58 ppm, the “Mean Dicamba in Distillate” value ([1]; 5% a.e. dicamba, solution pH 9.03) was 0.32 ppm and the “ppm Dicamba in distillate” value ([1]; pH 6.35) was 0.8 ppm. For the same compound, the “ppm Dicamba in distillate” value ([1]; pH 8.26) was 0.6 ppm, the Comment ([4]; dicamba salt solution added to […] Roundup POWERMAX solution) was “CLARITY-clear solution with no” and the g to crystals ([4]; grams dicamba a.e. (35.8% a.e. salt solution) added to […] Roundup POWERMAX solution to induce crystallization or precipitation) was >17 g.
With `NCCCCCCN` [HMDA] the “Comments (crystal formation)” value [2] was “Pasty solid”, the “solubility 0° C. a.e.” value [2] was 11.2 wt % and the “solubility 0° C. a.i.” value [2] was 14.1 wt %. The “solubility 20° C. a.e.” value [2] was 14.1 wt % and the “solubility 20° C. a.i.” value [2] was 17.8 wt %.
In the case of `COc1c(Cl)ccc(Cl)c1C(=O)O.NCCOCCO` [Dicamba DGA salt, reference compound], the “aqueous solubility Approximate g a.e./L @20° C.” value [2] was 700 g a.e./L, the “aqueous solubility wt % a.e. @20° C.” value [2] was 56.5 wt % a.e and the “aqueous solubility wt % a.e. @20° C.” value ([2]; Table 10b, second experiment, dicamba acid and salts) was 56.5 wt % a.e. The “aqueous solubility wt % a.i. @20° C.” value ([2]; Table 10b, second experiment) was 83.4 wt % a.i and the “crystal formation from concentrated salt solution” value ([2]; solubility experiment, Example 10) was “several weeks”.
